Test results taken from PMC11173647, “Anti-Inflammatory Activity of Pyrazolo[1,5-a]quinazolines” (Molecules, 2024).
Read-outs that look alike come from different tables or passages of the source.

Legend:
[1] = system: LPS-induced NF-κB/AP-1 transcriptional activity in THP-1Blue cells; assay: LPS-induced NF-κB/AP-1 reporter (secreted alkaline phosphatase) activity in THP-1Blue cells; type: cell-based, human; conditions: for inhibitory activity in THP-1Blue cells (in words): LPS-induced NF-κB/AP-1 reporter activity; for IC50: THP-1Blue cells, 30 min pretreatment, 250 ng/mL LPS for 24 h, alkaline phosphatase in supernatant, read-out: AP Production IC50
Experimental: THP-1 cells are a human monocyte cell line that was developed from a monocyte isolated from the peripheral blood of an acute monocytic leukemia patient. This cell line is used as a monocyte/macrophage model in immunology research. The THP-1Blue cells obtained from InvivoGen (San Diego, CA, USA) are THP-1 cells that were stably transfected with a secreted embryonic alkaline phosphatase gene that is under control of a NF-κB/AP-1-inducible promoter. For this study, THP-1Blue cells were cultured at 37 °C in a humidified atmosphere containing 5% CO2 in RPMI 1640 medium (Mediatech Inc., Herndon, VA, USA) supplemented with 10% (v/v) fetal bovine serum (FBS), 100 μg/mL streptomycin, 100 U/mL penicillin, 100 μg/mL phleomycin (Zeocin), and 10 μg/mL blasticidin S (all from Sigma-Aldrich, St. Louis, MO, USA).
To measure the activation of AP-1/NF-κB, the THP-1Blue cells (2 × 10^5 cells/well) were pretreated with the test compounds or dimethyl sulfoxide (DMSO; 1% final concentration) for 30 min, followed by the addition of 250 ng/mL of lipopolysaccharide (LPS; from Escherichia coli strain 0111:B4) for 24 h, and alkaline phosphatase activity was measured in the cell supernatants using the QUANTI-Blue mix (InvivoGen) as the absorbance at 655 nm and compared with positive control samples (LPS). The concentration of the compound that caused 50% inhibition of the NF-κB reporter activity (IC50) was calculated.

THP-1Blue cells = assay: Cytotoxicity, CellTiter-Glo Luminescent Cell Viability Assay; type: cell-based, human; conditions: 24 h, concentrations up to 50 µM
Experimental: Cytotoxicity was analyzed with a CellTiter-Glo Luminescent Cell Viability Assay Kit from Promega (Madison, WI, USA) according to the manufacturer’s protocol. THP-1Blue cells were treated with varying concentrations of the test compounds (up to 50 µM) and cultivated for 24 h. After treatment, the cells were allowed to equilibrate to room temperature for 30 min, the substrate was added, and the samples were analyzed with a Fluoroscan Ascent FL (Thermo Fisher Scientific, Waltham, MA, USA).

Solubility in DMSO = type: physicochemical
JNK1 = target: T1, JNK1 (Homo sapiens, UniProt P45983); assay: KINOMEscan ATP site-dependent binding assay; conditions: duplicate
T1 construct: purchased Eurofins Pharma Discovery (KINOMEscan)
T1 sequence (P45983 whole entry): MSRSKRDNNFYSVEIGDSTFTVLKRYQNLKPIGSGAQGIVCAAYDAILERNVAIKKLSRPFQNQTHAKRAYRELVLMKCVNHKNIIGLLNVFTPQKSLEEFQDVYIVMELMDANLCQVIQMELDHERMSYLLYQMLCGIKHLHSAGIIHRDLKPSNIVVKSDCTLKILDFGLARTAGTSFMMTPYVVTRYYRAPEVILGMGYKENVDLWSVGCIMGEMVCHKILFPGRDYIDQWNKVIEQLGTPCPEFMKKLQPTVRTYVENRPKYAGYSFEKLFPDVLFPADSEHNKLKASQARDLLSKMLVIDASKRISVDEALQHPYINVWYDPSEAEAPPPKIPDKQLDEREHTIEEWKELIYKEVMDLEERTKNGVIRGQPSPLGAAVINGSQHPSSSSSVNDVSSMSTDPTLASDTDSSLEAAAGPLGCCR
Experimental: (§1) Binding reactions were performed at room temperature for 1 h, and the fraction of kinase not bound to the test compound was determined by capture with an immobilized affinity ligand and quantified by quantitative polymerase chain reaction. The primary screening at fixed concentrations of the compound was performed in duplicate.

JNK2 = target: T2, JNK2 (Homo sapiens, UniProt P45984); assay: KINOMEscan ATP site-dependent binding assay; conditions: duplicate
T2 construct: purchased Eurofins Pharma Discovery (KINOMEscan)
T2 sequence (P45984 whole entry): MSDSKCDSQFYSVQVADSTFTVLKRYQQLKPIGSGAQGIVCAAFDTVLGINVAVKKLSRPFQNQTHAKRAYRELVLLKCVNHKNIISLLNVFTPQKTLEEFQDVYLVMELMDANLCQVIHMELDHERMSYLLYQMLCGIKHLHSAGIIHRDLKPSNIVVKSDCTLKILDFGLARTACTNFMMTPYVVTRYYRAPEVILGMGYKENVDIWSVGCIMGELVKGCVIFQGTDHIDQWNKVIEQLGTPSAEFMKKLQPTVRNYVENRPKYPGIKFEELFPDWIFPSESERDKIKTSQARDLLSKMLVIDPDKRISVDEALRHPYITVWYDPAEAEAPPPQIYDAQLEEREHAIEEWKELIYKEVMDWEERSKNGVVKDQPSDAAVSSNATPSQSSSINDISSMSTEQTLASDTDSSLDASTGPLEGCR
Experimental: as §1

JNK3 = target: T3, JNK3 (Homo sapiens, UniProt P53779); assay: KINOMEscan ATP site-dependent binding assay; conditions: duplicate
T3 construct: purchased Eurofins Pharma Discovery (KINOMEscan)
T3 sequence (P53779 whole entry): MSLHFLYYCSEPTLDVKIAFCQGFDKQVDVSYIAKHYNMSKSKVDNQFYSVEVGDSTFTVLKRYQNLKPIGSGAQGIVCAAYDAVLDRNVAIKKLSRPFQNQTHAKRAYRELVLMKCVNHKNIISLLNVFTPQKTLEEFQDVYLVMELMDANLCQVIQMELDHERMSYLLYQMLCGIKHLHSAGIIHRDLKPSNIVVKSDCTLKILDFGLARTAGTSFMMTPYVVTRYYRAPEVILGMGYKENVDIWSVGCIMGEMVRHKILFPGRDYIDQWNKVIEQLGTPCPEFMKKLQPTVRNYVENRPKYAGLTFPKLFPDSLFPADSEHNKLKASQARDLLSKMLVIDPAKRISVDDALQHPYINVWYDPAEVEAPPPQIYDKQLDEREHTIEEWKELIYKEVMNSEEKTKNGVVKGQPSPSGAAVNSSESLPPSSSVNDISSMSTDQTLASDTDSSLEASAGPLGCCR
Experimental: as §1

Row | melting point | Compound | Cytotoxicity (THP-1Blue cells) | other results
1 | – | 5-{[4-(Methanesulfonyl)phenyl]methoxy}-3-(thiophen-3-yl)pyrazolo[1,5-a]quinazoline [compound 20] | N.T. (no cytotoxicity was found in THP-1Blue cells at concentrations up to 50 µM) | inhibitory activity in THP-1Blue cells (in words) [1]: moderate activity; IC50 [1]: 13.3 ± 2.6 µM
2 | 189 to 192 °C | CSc1ccc(Cn2c(=O)c3ccccc3n3ncc(C#N)c23)cc1 (hydrate or solvate) [7e] | – | –
3 | 137 to 139 °C | CSc1ccc(Cn2c(=O)c3ccccc3n3nccc23)cc1 (hydrate or solvate) [7f] | – | –
4 | 177 to 180 °C | NC(=O)c1cnn2c1nc(OCc1ccc(S(N)(=O)=O)cc1)c1ccc(Cl)cc12 (hydrate or solvate) [23c, 8-Chloro-5-(4-sulfamoylbenzyloxy)pyrazolo[1,5-a]quinazoline-3-carboxamide] | – | –
5 | 280 to 283 °C | N#Cc1cnn2c1[nH]c(=O)c1ccc([N+](=O)[O-])cc12 [2c] | – | –
6 | > 295 °C | N#Cc1cnn2c1[nH]c(=O)c1cc([N+](=O)[O-])ccc12 [2d] | – | –
7 | 195 to 197 °C | CCOC(=O)c1cnn2c1[nH]c(=O)c1ccc([N+](=O)[O-])cc12 [4c] | – | –
8 | 217 to 220 °C | CCOC(=O)c1cnn2c1[nH]c(=O)c1cc([N+](=O)[O-])ccc12 [4d] | – | –
9 | 224 to 226 °C | CCOC(=O)c1cnn2c3ccccc3c(=O)n(Cc3ccc(S(N)(=O)=O)cc3)c12 [7c] | – | –
10 | 246 to 247 °C | COc1nc2c(C(N)=O)cnn2c2ccccc12 [13a, 5-Methoxypyrazolo[1,5-a]quinazoline-3-carboxamide] | N.T. (no cytotoxicity was found in THP-1Blue cells at concentrations up to 50 µM) | IC50 ([1]; Homo sapiens): 24.4 ± 3.1 µM
11 | 208 to 209 °C | NC(=O)c1cnn2c1nc(OCc1ccccc1)c1ccccc12 [13b, 5-(Benzyloxy)pyrazolo[1,5-a]quinazoline-3-carboxamide] | N.T. (no cytotoxicity was found in THP-1Blue cells at concentrations up to 50 µM) | IC50 ([1]; Homo sapiens): 4.81 µM; IC50 [1]: 4.8 ± 1.2 µM; solubility in DMSO (Solubility in DMSO): low solubility in DMSO
12 | 227 to 229 °C | NC(=O)c1cnn2c1nc(OCc1ccccc1Cl)c1ccccc12 [13d] | – | –
13 | 242 to 245 °C | NC(=O)c1cnn2c1nc(OCc1cccc(Cl)c1)c1ccccc12 [13e] | – | –
14 | 243 to 244 °C | NC(=O)c1cnn2c1nc(OCc1ccc(Br)cc1)c1ccccc12 [13f] | – | –
15 | 226 to 227 °C | Cc1ccccc1COc1nc2c(C(N)=O)cnn2c2ccccc12 [13g] | – | –
16 | 210 to 212 °C | COc1cccc(COc2nc3c(C(N)=O)cnn3c3ccccc23)c1 [13h] | – | –
17 | 167 to 168 °C | NC(=O)c1cnn2c1nc(OCc1ccc(S(N)(=O)=O)cc1)c1ccccc12 [13i, 5-[(4-Sulfamoylbenzyl)oxy]pyrazolo[1,5-a]quinazoline-3-carboxamide] | N.T. (no cytotoxicity was found in THP-1Blue cells at concentrations up to 50 µM) | IC50 ([1]; Homo sapiens): 9.7 ± 2.4 µM; Kd (JNK1): 10.9 ± 1.4 µM; Kd (JNK2): 18.5 ± 2.3 µM; Kd (JNK3): 9 ± 1.2 µM
18 | 276 to 279 °C | CSc1ccc(Cn2c(=O)c3ccccc3n3ncc(C(N)=O)c23)cc1 [14c] | – | –
19 | 179 to 181 °C | c1ccc(COc2nc3c(-c4ccsc4)cnn3c3ccccc23)cc1 [21a] | – | –
20 | 125 to 126 °C | Nc1ccccc1COc1nc2c(-c3ccsc3)cnn2c2ccccc12 [21b] | – | –
21 | 288 to 290 °C | COc1nc2c(C(N)=O)cnn2c2cc(Cl)ccc12 [23a, 8-Chloro-5-methoxypyrazolo[1,5-a]quinazoline-3-carboxamide] | N.T. (no cytotoxicity was found in THP-1Blue cells at concentrations up to 50 µM) | IC50 ([1]; Homo sapiens): 7.9 ± 1.6 µM

Row | melting point | Compound | Cytotoxicity (THP-1Blue cells) | other results
22 | – | NC(=O)c1cnn2c1nc(OCc1ccc(S(N)(=O)=O)cc1)c1ccc(Cl)cc12 [23c, 8-Chloro-5-(4-sulfamoylbenzyloxy)pyrazolo[1,5-a]quinazoline-3-carboxamide] | N.T. (no cytotoxicity was found in THP-1Blue cells at concentrations up to 50 µM) | IC50 ([1]; Homo sapiens): 12.2 ± 2.1 µM
23 | – | COc1nc2c(C(N)=O)cnn2c2cc([N+](=O)[O-])ccc12 [33a, 5-Methoxy-8-nitropyrazolo[1,5-a]quinazoline-3-carboxamide] | N.T. (no cytotoxicity was found in THP-1Blue cells at concentrations up to 50 µM) | IC50 ([1]; Homo sapiens): 14.1 ± 2.9 µM
24 | 269 to 271 °C | COc1nc2c(C(N)=O)cnn2c2ccc([N+](=O)[O-])cc12 [33b, 5-Methoxy-7-nitropyrazolo[1,5-a]quinazoline-3-carboxamide] | N.T. (no cytotoxicity was found in THP-1Blue cells at concentrations up to 50 µM) | IC50 ([1]; Homo sapiens): 18.2 ± 2.5 µM
25 | > 300 °C | CNc1nc2c(C#N)cnn2c2cc([N+](=O)[O-])ccc12 [42a, 5-(Methylamino)-8-nitropyrazolo[1,5-a]quinazoline-3-carbonitrile] | N.T. (no cytotoxicity was found in THP-1Blue cells at concentrations up to 50 µM) | IC50 ([1]; Homo sapiens): 30.1 ± 3.3 µM; inhibitory activity in THP-1Blue cells (in words) [1]: moderate activity
26 | > 295 °C | N#Cc1cnn2c1nc(Nc1ccc(N)cc1)c1ccc([N+](=O)[O-])cc12 [42c] | – | –
27 | > 295 °C | N#Cc1cnn2c1nc(Nc1ccc(N)cc1)c1cc([N+](=O)[O-])ccc12 [42d] | – | –
28 | > 300 °C | COc1nc2c(C(N)=O)cnn2c2cc(N)ccc12 [46a] | – | –
29 | > 300 °C | CNc1nc2c(C#N)cnn2c2cc(N)ccc12 [46b] | – | –
30 | > 300 °C | CNc1nc2c(C(N)=O)cnn2c2cc(N)ccc12 [46c] | – | –
31 | > 300 °C | CCOC(=O)c1cnn2c1ncc1c(=O)nc[nH]c12 [53a] | – | –
32 | > 300 °C | O=c1nc[nH]c2c1cnc1ccnn12 [53b] | – | –
33 | – | COc1ccc2c(c1)-n1ncc(C(=O)NCc3ccccc3)c1NC2 [58c] | N.T. (no cytotoxicity was found in THP-1Blue cells at concentrations up to 50 µM) | IC50 ([1]; Homo sapiens): 39.1 µM; IC50 [1]: 34.1 ± 4.1 µM
34 | 198 to 201 °C | C[S+]([O-])c1ccc(Cn2c(=O)c3ccccc3n3ncc(I)c23)cc1 (stereo not drawn) [compound 9] | – | –
35 | 225 to 226 °C | C[S+]([O-])c1ccc(COc2nc3c(C(N)=O)cnn3c3ccccc23)cc1 (stereo not drawn) [compound 16] | N.T. (no cytotoxicity was found in THP-1Blue cells at concentrations up to 50 µM) | IC50 ([1]; Homo sapiens): 7.9 ± 1.7 µM; Kd (JNK1): 17 ± 2.1 µM; Kd (JNK2): 21 ± 2.4 µM; Kd (JNK3): 10.4 ± 1.5 µM
36 | 176 to 177 °C | c1ccc(CNc2nc3c(-c4ccsc4)cnn3c3ccccc23)cc1 [compound 22] | – | –
37 | 288 to 290 °C | CN(C)/C=N/C(=O)c1cnn2c1[nH]c(=O)c1ccc(Cl)cc12 [compound 26, (E)-8-Chloro-N-[(dimethylamino)methylene]-5-oxo-4,5-dihydropyrazolo[1,5-a]quinazoline-3-carboxamide] | N.T. (no cytotoxicity was found in THP-1Blue cells at concentrations up to 50 µM) | IC50 ([1]; Homo sapiens): 49.3 ± 4.6 µM
38 | 269 to 271 °C | CCOC(=O)c1cnn2c1nc(Nc1ccc(N)cc1)c1cc([N+](=O)[O-])ccc12 [compound 40] | – | –
39 | > 300 °C | CNc1nc2c(C(N)=O)cnn2c2cc([N+](=O)[O-])ccc12 [compound 43, 5-(Methylamino)-8-nitropyrazolo[1,5-a]quinazoline-3-carboxamide] | N.T. (no cytotoxicity was found in THP-1Blue cells at concentrations up to 50 µM) | IC50 ([1]; Homo sapiens): 11.8 ± 2.2 µM
40 | > 300 °C | COc1nc2c(C#N)cnn2c2cc(N)ccc12 [compound 47, 8-amino-5-methoxy-PQ-3-carbonitrile] | – | –
41 | 286 to 288 °C | Cn1c(=O)c2ccc(N)cc2n2ncc(C#N)c12 [compound 48] | – | –
42 | > 300 °C | Cn1c(=O)c2ccc(N)cc2n2ncc(C(N)=O)c12 [compound 49] | – | –
